Assay results: ChEMBL document CHEMBL3603774, “Novel 5-functionalized-pyrazoles: Synthesis, characterization and pharmacological screening” (Bioorg Med Chem Lett, 2015)
≈ marks a conversion by molar mass, not a printed value.

How the values were obtained:
[1] = Inhibition of alpha-glucosidase (unknown origin) using p-nitrophenol glycoside as substrate after 30 mins by colorimetric analysis; set-up: species or system Homo sapiens
Staphylococcus aureus [2] = assay: Antibacterial activity against Staphylococcus aureus MTCC 96 after 24 hrs by microdilution method; assay type: functional; details: MTCC 96, 24 h
Aspergillus niger [3] = assay: Antifungal activity against Aspergillus niger MTCC 281 at 50 ug/ml after 24 hrs by disc diffusion method; assay type: functional; details: MTCC 281, 24 h, read-out: IZ
Klebsiella pneumoniae [4] = assay: Antibacterial activity against Klebsiella pneumoniae MTCC 3384 at 50 ug/ml after 24 hrs by disc diffusion method; assay type: functional; details: MTCC 3384, 24 h, read-out: IZ
Staphylococcus aureus [5] = assay: Antibacterial activity against Staphylococcus aureus MTCC 96 at 50 ug/ml after 24 hrs by disc diffusion method; assay type: functional; details: MTCC 96, 24 h, read-out: IZ
Staphylococcus aureus [6] = assay: Antibacterial activity against Staphylococcus aureus MTCC 96 assessed as concentration required to completely destroy test microorganisms after 24 hrs; assay type: functional; details: MTCC 96, 24 h
Bacillus cereus [7] = assay: Antibacterial activity against Bacillus cereus MTCC 8372 at 50 ug/ml after 24 hrs by disc diffusion method; assay type: functional; details: MTCC 8372, 24 h, read-out: IZ
Escherichia coli [8] = assay: Antibacterial activity against Escherichia coli MTCC 724 at 50 ug/ml after 24 hrs by disc diffusion method; assay type: functional; details: MTCC 724, 24 h, read-out: IZ
Escherichia coli [9] = assay: Antibacterial activity against Escherichia coli MTCC 724 assessed as concentration required to completely destroy test microorganisms after 24 hrs; assay type: functional; details: MTCC 724, 24 h
Klebsiella pneumoniae [10] = assay: Antibacterial activity against Klebsiella pneumoniae MTCC 3384 assessed as concentration required to completely destroy test microorganisms after 24 hrs; assay type: functional; details: MTCC 3384, 24 h
Aspergillus flavus [11] = assay: Antifungal activity against Aspergillus flavus MTCC 873 at 100 ug/ml after 24 hrs by disc diffusion method; assay type: functional; details: MTCC 873, 24 h, read-out: IZ
Aspergillus niger [12] = assay: Antifungal activity against Aspergillus niger MTCC 281 at 100 ug/ml after 24 hrs by disc diffusion method; assay type: functional; details: MTCC 281, 24 h, read-out: IZ
Aspergillus flavus [13] = assay: Antifungal activity against Aspergillus flavus MTCC 873 at 50 ug/ml after 24 hrs by disc diffusion method; assay type: functional; details: MTCC 873, 24 h, read-out: IZ
Escherichia coli [14] = assay: Antibacterial activity against Escherichia coli MTCC 724 after 24 hrs by microdilution method; assay type: functional; details: MTCC 724, 24 h
Aspergillus niger [15] = assay: Antifungal activity against Aspergillus niger MTCC 281 after 48 hrs by microdilution method; assay type: functional; details: MTCC 281, 48 h
Aspergillus flavus [16] = assay: Antifungal activity against Aspergillus flavus MTCC 873 after 48 hrs by microdilution method; assay type: functional; details: MTCC 873, 48 h
Bacillus cereus [17] = assay: Antibacterial activity against Bacillus cereus MTCC 8372 after 24 hrs by microdilution method; assay type: functional; details: MTCC 8372, 24 h
Bacillus cereus [18] = assay: Antibacterial activity against Bacillus cereus MTCC 8372 at 100 ug/ml after 24 hrs by disc diffusion method; assay type: functional; details: MTCC 8372, 24 h, read-out: IZ
Aspergillus flavus [19] = assay: Antifungal activity against Aspergillus flavus MTCC 873 assessed as concentration required to completely destroy test microorganisms after 24 hrs; assay type: functional; details: MTCC 873, 24 h
Aspergillus niger [20] = assay: Antifungal activity against Aspergillus niger MTCC 281 assessed as concentration required to completely destroy test microorganisms after 24 hrs; assay type: functional; details: MTCC 281, 24 h
Staphylococcus aureus [21] = assay: Antibacterial activity against Staphylococcus aureus MTCC 96 at 100 ug/ml after 24 hrs by disc diffusion method; assay type: functional; details: MTCC 96, 24 h, read-out: IZ
Klebsiella pneumoniae [22] = assay: Antibacterial activity against Klebsiella pneumoniae MTCC 3384 after 24 hrs by microdilution method; assay type: functional; details: MTCC 3384, 24 h
Escherichia coli [23] = assay: Antibacterial activity against Escherichia coli MTCC 724 at 100 ug/ml after 24 hrs by disc diffusion method; assay type: functional; details: MTCC 724, 24 h, read-out: IZ
Klebsiella pneumoniae [24] = assay: Antibacterial activity against Klebsiella pneumoniae MTCC 3384 at 100 ug/ml after 24 hrs by disc diffusion method; assay type: functional; details: MTCC 3384, 24 h, read-out: IZ
Bacillus cereus [25] = assay: Antibacterial activity against Bacillus cereus MTCC 8372 assessed as concentration required to completely destroy test microorganisms after 24 hrs; assay type: functional; details: MTCC 8372, 24 h
Alpha amylase = target: T1, Alpha amylase (Homo sapiens, UniProt P0DUB6); assay: Inhibition of alpha-amylase (unknown origin) using starch as substrate after 30 mins by spectrophotometer analysis
T1 sequence (P0DUB6 whole entry): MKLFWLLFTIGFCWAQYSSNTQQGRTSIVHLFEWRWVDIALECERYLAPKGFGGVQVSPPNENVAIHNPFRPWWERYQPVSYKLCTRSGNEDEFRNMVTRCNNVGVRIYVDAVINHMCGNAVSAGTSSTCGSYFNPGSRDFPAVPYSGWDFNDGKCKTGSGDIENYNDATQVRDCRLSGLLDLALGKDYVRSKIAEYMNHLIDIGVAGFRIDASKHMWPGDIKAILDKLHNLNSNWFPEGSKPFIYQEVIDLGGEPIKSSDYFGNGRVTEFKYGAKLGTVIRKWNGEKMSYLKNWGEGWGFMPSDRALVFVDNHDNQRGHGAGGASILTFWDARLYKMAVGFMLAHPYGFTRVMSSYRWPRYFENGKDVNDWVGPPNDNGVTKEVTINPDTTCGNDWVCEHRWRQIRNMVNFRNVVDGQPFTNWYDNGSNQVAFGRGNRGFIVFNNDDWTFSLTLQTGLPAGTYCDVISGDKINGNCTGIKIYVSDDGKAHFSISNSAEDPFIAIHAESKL

IC50 [1]: 45 µg/mL (≈ 109 µM) | MIC (Staphylococcus aureus [2]): 40 µg/mL (≈ 97 µM) | MIC (Escherichia coli [14]): 45 µg/mL (≈ 109 µM) | MIC (Aspergillus niger [15]): 45 µg/mL (≈ 109 µM) | MIC (Aspergillus flavus [16]): 55 µg/mL (≈ 133 µM) | MIC (Bacillus cereus [17]): 50 µg/mL (≈ 121 µM) | MIC (Klebsiella pneumoniae [22]): 45 µg/mL (≈ 109 µM) | IC50 (Alpha amylase): 45 µg/mL (≈ 109 µM)
SMILES: CCOC(=O)c1c(-c2ccccc2)nn(-c2ccccc2)c1COCc1ccccc1
zone of inhibition at 50 µg/mL (Aspergillus niger [3]): 12 mm | zone of inhibition at 50 µg/mL (Klebsiella pneumoniae [4]): 3 mm | zone of inhibition at 50 µg/mL (Staphylococcus aureus [5]): 2 mm | MBC (Staphylococcus aureus [6]): 210 µg/mL (≈ 509 µM) | zone of inhibition at 50 µg/mL (Bacillus cereus [7]): 2 mm | zone of inhibition at 50 µg/mL (Escherichia coli [8]): 4 mm | MBC (Escherichia coli [9]): 210 µg/mL (≈ 509 µM) | MBC (Klebsiella pneumoniae [10]): 230 µg/mL (≈ 558 µM) | zone of inhibition at 100 µg/mL (Aspergillus flavus [11]): 10 mm | zone of inhibition at 100 µg/mL (Aspergillus niger [12]): 8 mm | zone of inhibition at 50 µg/mL (Aspergillus flavus [13]): 8 mm | zone of inhibition at 100 µg/mL (Bacillus cereus [18]): 8 mm | MFC (Aspergillus flavus [19]): 270 µg/mL (≈ 655 µM) | MFC (Aspergillus niger [20]): 265 µg/mL (≈ 642 µM) | zone of inhibition at 100 µg/mL (Staphylococcus aureus [21]): 6 mm | zone of inhibition at 100 µg/mL (Escherichia coli [23]): 6 mm | zone of inhibition at 100 µg/mL (Klebsiella pneumoniae [24]): 6 mm | MBC (Bacillus cereus [25]): 255 µg/mL (≈ 618 µM)
